# From PMC5931107, “Clinical pharmacodynamic/exposure characterisation of the multikinase inhibitor ilorasertib (ABT-348) in a phase 1 dose-escalation trial” (British Journal of Cancer, 2018)
# Marks after values point to notes of the source that are not given here.
# Assays:
# [1] = Plasma pharmacokinetics, Arm I (oral QD), phase 1 trial; type: in vivo, human; conditions: for AUC(0-t): AUCt
# Experimental: Pharmacokinetics of ilorasertib were evaluated in the dose-escalation cohort on blood samples that were collected on cycle 1 days 1 and 15. Parameters determined: Cmax, time to Cmax (Tmax), terminal phase elimination half-life (t1/2), clearance, apparent oral clearance (CL/F), and area under the plasma concentration-time curve from time 0 to time of last measurable concentration (AUCt) and from time 0 to infinity (AUC∞). For Arm I, blood samples were collected prior to dosing and at 0.5, 1, 2, 3, 4, 6, 8, 10 or 12, and 24 h after dosing on cycle 1 days 1 and 15; of note, for institutions not able to collect the 10- or 12-h post-dose sample, the 24-h sample was replaced with 22-h and 28-h post-dose samples. In Arm II, for the first dose, blood samples were collected pre-dose and at 1, 2, 3, and 4 h post-dose on cycle 1 days 1 and 15; for the second dose, samples were collected pre-dose and at 1, 2, 3, 4, 18, and 24 h after second dose on cycle 1 days 1 and 15. In Arm III, blood samples were collected prior to infusion, at 1 h 55 min (just before end of infusion), and at 0.5, 1, 2, 4, 6, 8, 10, and 24 h after end of infusion on cycle 1 days 1 and 15; here also, for institutions not able to collect the 8-h or 10-h after-end-of-infusion samples, the 24-h sample was replaced with 22-h and 28-h post-dose samples. The liquid chromatography (LC)-mass spectrometry (MS)/MS method was developed and validated in the Bioanalysis Department of AbbVie. Fifty microliter of human plasma (K2EDTA as anticoagulant) was fortified with 300 μL of deuterium-stable labelled internal standard and mixed well. A HybridSPE precipitation plate (50 mg/96 wells, Supelco Analytical, Munich, Germany) was used to directly load and elute (under slight vacuum) the fortified samples into a clean collection plate. Samples were dried before reconstitution with 100 μL of 20/80 (v/v) acetonitrile/water, and injected for LC-MS/MS analysis. A Halo C8 (Wilmington, DE, USA; 2.7 μm, 2.1 × 30 mm) was used on an Agilent 1290 Infinity UPLC pump (Agilent Technologies, Santa Clara, CA) to carry out the separation. An isocratic condition with 25/75/0.1 (v/v/v) acetonitrile/water/98% formic acid was used as the mobile phase. The flow rate was set to be 0.6 mL/min. An MPS 3 C ([…] Ruhr, Germany) autosampler was used to introduce samples onto the UPLC system. An API 4000 mass spectrometer (Applied Biosystems, Foster City, CA) was used in the multiple reactions monitoring mode for the detection and quantitation of analyte. Descriptive statistics were used for demographic variables. The numbers and percentages of patients with treatment-emergent AEs (TEAEs) were tabulated using the Medical Dictionary for Regulatory Activities version 16.0 system organ class and preferred term, and further classified according to CTCAE version 4.0 criteria. The safety data set included all patients who received one or more doses of ilorasertib. The pharmacokinetic data set included all patients who received one or more doses of ilorasertib and had one or more pharmacokinetic samples. Values for pharmacokinetic parameters were determined using non-compartmental methods, with data analysed separately for each arm. A repeated measures analysis was performed for Tmax and dose-normalised Cmax, AUCt, and AUC∞. The model included random effects for patient and fixed effects for dose level, day, and the interaction of dose level and day. To assess effects of exposure on pharmacodynamic biomarkers, Cmax was employed as the directly measured marker of exposure for the rapid changes in DBP and PlGF pre-steady-state, while AUC∞ reflected exposure variability at the time of post-multiple-dose skin biopsy. Descriptive statistics were used to summarise ECOG performance status. The efficacy data set included all patients who received one or more doses of ilorasertib.
# [2] = system: Aurora B; set-up: method as in PMID 22935731; conditions: phosphorylation of histone H3, read-out: Cellular PD marker IC50 (95% confidence limits); cited from earlier work
# [3] = system: Aurora A; set-up: method as in PMID 22935731; conditions: Aurora A autophosphorylation, nocodazole-arrested HeLa cells; read-out: Cellular PD marker IC50 (95% confidence limits); cited from earlier work
# [4] = system: Aurora C; set-up: method as in PMID 22935731; conditions: 1 mM ATP; read-out: Biochemical IC50 (95% confidence limits); cited from earlier work
# [5] = system: Aurora B (Y156H); set-up: method as in PMID 22935731; conditions: Y156H mutant, 1 mM ATP; read-out: Biochemical IC50 (95% confidence limits); cited from earlier work
# [6] = system: PDGFR-α; set-up: method as in PMID 22935731; conditions: 1 mM ATP; read-out: Biochemical IC50 (95% confidence limits); cited from earlier work
# [7] = system: VEGFR3; set-up: method as in PMID 22935731; conditions: 1 mM ATP; read-out: Biochemical IC50 (95% confidence limits); cited from earlier work
# [8] = system: Aurora kinase B; assay: pHH3 immunohistochemistry in skin punch biopsies; type: in vivo, human; conditions: 8 mg i.v. and 60‒340 mg PO BID
# [9] = system: VEGFR1; set-up: method as in PMID 22935731; conditions: 1 mM ATP; read-out: Biochemical IC50 (95% confidence limits); cited from earlier work
structure (smiles),measurement,setting,value
"Nc1ncc(-c2cnn(CCO)c2)c2scc(-c3ccc(NC(=O)Nc4cccc(F)c4)cc3)c12 [ilorasertib, Ilorasertib]",t1/2 (harmonic mean),"[1]; Arm I PO QD all doses, day 1, N=21",12.2 ± 6.9^d h
same,half-life,"[1]; human, in vivo, Mean t1/2",~12 h
same,Tmax,"[1]; human, in vivo, Time of peak plasma concentration",~4 h
same,Dose proportionality of exposure (Cmax and AUC),"[1]; human, in vivo, iv",approximately dose proportional
same,half-life,"[1]; human, in vivo, po, 10 mg, t1/2 (harmonic mean)",11.7 ± 1.4 h
same,AUCt,"[1]; human, in vivo, po, 20 mg","1.76 (3.23, 0.29) μg•h/mL"
same,AUC∞,"[1]; human, in vivo, po, 20 mg","1.46 (2.41, 0.51) μg•h/mL"
same,Cmax,"[1]; human, in vivo, po, 20 mg","0.08 (0.14, 0.02) μg/mL"
same,Tmax,"[1]; human, in vivo, po, 20 mg","5.0 (4.0, 6.0) h"
same,AUC(0-t),"[1]; human, in vivo, po, 20 mg",1.01 µg·h/mL
same,AUC(0-inf),"[1]; human, in vivo, po, 20 mg",2.26 µg·h/mL
same,Tmax,"[1]; human, in vivo, po, 20 mg, Tmax",5 h
same,AUCt,"[1]; human, in vivo, po, 40 mg",1.15 µg·h/mL
same,AUC∞/dose,"[1]; human, in vivo, po, 40 mg",41.0 ng·h/mL/mg
same,CL/F,"[1]; human, in vivo, po, 40 mg",24.4 L/h
same,AUC(0-t),"[1]; human, in vivo, po, 40 mg",0.64 µg·h/mL
same,AUC(0-inf),"[1]; human, in vivo, po, 40 mg",1.64 µg·h/mL
same,Tmax,"[1]; human, in vivo, po, 40 mg, Tmax",8 h
same,half-life,"[1]; human, in vivo, po, 40 mg, t1/2 (harmonic mean)",11.5 h
same,AUCt,"[1]; human, in vivo, po, 80 mg",1.59 ± 1.04 µg·h/mL
same,AUC∞,"[1]; human, in vivo, po, 80 mg",2.75 ± 2.15 µg·h/mL
same,t1/2 (harmonic mean),"[1]; human, in vivo, po, 80 mg",16.8 ± 2.8 h
same,AUC(0-t),"[1]; human, in vivo, po, 80 mg",1.9 ± 1.1 µg·h/mL
same,AUC(0-inf),"[1]; human, in vivo, po, 80 mg",2.82 ± 1.54 µg·h/mL
same,Cmax,"[1]; human, in vivo, po, 80 mg, Cmax",0.22 ± 0.1 µg/mL
same,Tmax,"[1]; human, in vivo, po, 80 mg, Tmax",4 ± 2 h
same,half-life,"[1]; human, in vivo, po, 80 mg, t1/2 (harmonic mean)",16 ± 1.8 h
same,AUCt,"[1]; human, in vivo, po, 120 mg",2.25 ± 0.61 µg·h/mL
same,AUC∞,"[1]; human, in vivo, po, 120 mg",4.31 ± 2.38^c μg•h/mL
same,Cmax,"[1]; human, in vivo, po, 120 mg",0.25 ± 0.14 µg/mL
same,Tmax,"[1]; human, in vivo, po, 120 mg",4.1 ± 2.2 h
same,AUC(0-t),"[1]; human, in vivo, po, 120 mg",3.6 ± 2.5 µg·h/mL
same,AUC(0-inf),"[1]; human, in vivo, po, 120 mg",5.4 ± 2.62 µg·h/mL
same,Cmax,"[1]; human, in vivo, po, 120 mg, Cmax",0.49 ± 0.33 µg/mL
same,Tmax,"[1]; human, in vivo, po, 120 mg, Tmax",3.8 ± 2.2 h
same,AUC∞,"[1]; human, in vivo, po, 140 mg","4.13 (4.96, 3.31)^a μg•h/mL"
same,Cmax,"[1]; human, in vivo, po, 140 mg",0.33 ± 0.19 µg/mL
same,Tmax,"[1]; human, in vivo, po, 140 mg",10.1 ± 12.3 h
same,t1/2 (harmonic mean),"[1]; human, in vivo, po, 140 mg",15.8 ± 23.6 h
same,AUC(0-inf),"[1]; human, in vivo, po, 140 mg",5.4 ± 1.8 µg·h/mL
same,Cmax,"[1]; human, in vivo, po, 140 mg, Cmax",0.24 ± 0.13 µg/mL
same,half-life,"[1]; human, in vivo, po, 140 mg, t1/2 (harmonic mean)",10.1 h
same,Tmax,"[1]; human, in vivo, po, 180 mg",2.0 h
same,t1/2 (harmonic mean),"[1]; human, in vivo, po, 180 mg",11.6 h
same,Tmax,"[1]; human, in vivo, po, 180 mg, Tmax",4 ± 2 h
same,half-life,"[1]; human, in vivo, po, 180 mg, t1/2 (harmonic mean)",9.5 ± 2.7 h
same,Tmax,"[1]; human, in vivo, po, Tmax",4.2 ± 1.8 h
same,half-life,"[1]; human, in vivo, po, t1/2 (harmonic mean)",14 ± 4 h
same,IC50,[4],0.001 µM
same,IC50,[6],0.011 µM
same,IC50,[7],0.043 µM
same,pHH3 in epidermis with increasing exposure,[8],dose-dependent decreases of pHH3
same,IC50,[9],0.001 µM
